Assay results from PMC8988824, “Subcutaneous in situ gel delivered leuprolide acetate's consistent and prolonged drug delivery maintains effective testosterone suppression independent of age and weight in men with prostate cancer” (BJUI Compass, 2020).

Assay: clinical
Conditions: male, human, in vivo, sc, 7.5 mg
Description: An 8‐week, open‐label, single‐arm study was performed with the objective of evaluating safety, tolerability, and PK following a single dose of 7.5 mg Gel‐LA in surgically castrated men with advanced PCa. Testosterone levels were not evaluated for this study population.
Men aged 45‐85 years with histologically or cytologically proven adenocarcinoma of the prostate who had undergone bilateral orchiectomy at least 2 months prior to study start were eligible. […]
All patients received a single dose of 7.5 mg LA suspended in the ATRIGEL Delivery System (34% w/w Poly [DL‐lactide‐co‐glycolide] and 66% w/w N‐methyl‐2‐pyrrolidone) as a subcutaneous injection into the upper right or upper left quadrant of the abdomen. […] LA concentrations were determined with solid‐phase extraction and high‐performance liquid chromatography followed by radioimmunoassay. […]
Serum concentrations of LA were summarized as mean, standard deviation (SD), % relative SD, median, minimum, and maximum levels. PK parameters included the maximum observed LA concentration (Cmax), time of maximum serum concentration (Tmax), time of last measured LA concentration in serum (tldc), and area under the LA serum concentration vs time curve (AUC). AUC was determined by linear trapezoidal interpolation, and actual times of blood draws were used for the PK analyses. […]

Compound: CCNC(=O)[C@@H]1CCCN1C(=O)[C@H](CCCNC(=N)N)NC(=O)[C@H](CC(C)C)NC(=O)[C@@H](CC(C)C)NC(=O)[C@H](Cc1ccc(O)cc1)NC(=O)[C@H](CO)NC(=O)[C@H](Cc1c[nH]c2ccccc12)NC(=O)[C@H](Cc1c[nH]cn1)NC(=O)[C@@H]1CCC(=O)N1 [Leuprolide Acetate, Leuprolide acetate]
- AUC(0-t): 0.999 µg·h/mL
